What was measured:
[1] = tested on: AAT derived from Chamaemelum nobile; assay: Km of AAT derived from Chamaemelum nobile; assay type: biochemical; settings: 40 mM n-hexanol, Tris-HCl pH 8.5, 30° C., 2 hours
Experimental: The Km values for methacrylyl-CoA and acetyl-CoA were measured using the purified fraction obtained by MonoQ 5/50 GL column chromatography in Example 9. A 500 μL reaction solution was prepared by adding the purified fraction, 40 mM n-hexanol and methacrylyl-CoA or acetyl-CoA at each concentration to a 50 mM Tris-HCl buffer (pH 8.5). The vial was sealed, and reaction was carried out at 30° C. for 2 hours.
After the reaction was completed, the same GC analysis as in Example 10 was conducted to measure the ester produced in the enzymatic reaction. The […] (Km) was applied to a Michaelis-Menten expression to calculate the values using a Kaleidagraph software made by HULINKS.

[2] = tested on: AAT derived from Chamaemelum nobile; assay: Substrate specificity of AAT derived from Chamaemelum nobile; assay type: biochemical; settings: 0.12 mM acyl-CoA, pH 8.5, butyl methacrylate = 100%; for Relative activity with n-butanol: 40 mM n-butanol; for Relative activity with n-hexanol: 40 mM n-hexanol; for Relative activity with ethanol: 40 mM ethanol; for Relative activity with methanol: 40 mM methanol
Experimental: The substrate specificity of AAT was evaluated by the purified fraction obtained by MonoQ 5/50 GL column chromatography in Example 9.
In a 2-mL capacity screw vial, a reaction solution (50 mM Tris-HCl (pH 8.5), 40 mM alcohol, 0.12 mM acyl-CoA) was prepared, into which the purified fraction was added to be 500 μL. The vial was sealed and the mixture was reacted at 30° C. for one hour.
After the reaction was completed, 50 μL of 10 mM 2-hexanon was added as the internal sstandard, and solvent extraction was conducted using 200 μL octane or hexane. Centrifugation was conducted and 8 μL of the separated liquid was injected into GC to measure the ester produced through the enzymatic reaction. The amount of ester was calculated by the calibration curve using an internal standard method. The GC measuring conditions were set the same as in Example 9 except that the column temperature was adjusted appropriately for each of the target esters (see Table 4). To determine the quantity of n-butyl propionate, since the present column is unable to separate its peak from the peak of n-butanol, the absolute calibration curve method was employed under the GC-MS analysis conditions the same as in Example 1 (however, temperature conditions were changed to 80° C.→1 min→10° C./min→200° C.·5 min).
Relative activity values are shown based on the specific activity of butyl methacrylate set as 100%.

CC(=O)SCCNC(=O)CCNC(=O)[C@H](O)C(C)(C)COP(=O)(O)OP(=O)(O)OC[C@H]1O[C@@H](n2cnc3c(N)ncnc32)[C@H](O)[C@@H]1OP(=O)(O)O [acetyl-CoA]
Km [1]: 711 µM
Relative activity with n-butanol [2]: 37%
Relative activity with n-hexanol [2]: 84%

CCCC(=O)SCCNC(=O)CCNC(=O)[C@H](O)C(C)(C)COP(=O)(O)OP(=O)(O)OC[C@H]1O[C@@H](n2cnc3c(N)ncnc32)[C@H](O)[C@@H]1OP(=O)(O)O [butyryl-CoA]
Relative activity with n-butanol [2]: 40%

CCCCCC(=O)SCCNC(=O)CCNC(=O)[C@H](O)C(C)(C)COP(=O)(O)OP(=O)(O)OC[C@H]1O[C@@H](n2cnc3c(N)ncnc32)[C@H](O)[C@@H]1OP(=O)(O)O [hexanoyl-CoA]
Relative activity with ethanol [2]: 11%
Relative activity with n-butanol [2]: 21%

CC(C)C(=O)SCCNC(=O)CCNC(=O)[C@H](O)C(C)(C)COP(=O)(O)OP(=O)(O)OC[C@H]1O[C@@H](n2cnc3c(N)ncnc32)[C@H](O)[C@@H]1OP(=O)(O)O [isobutyryl-CoA]
Relative activity with ethanol [2]: 5%
Relative activity with n-butanol [2]: 114%

C=C(C)C(=O)SCCNC(=O)CCNC(=O)[C@H](O)C(C)(C)COP(=O)(O)OP(=O)(O)OC[C@H]1O[C@@H](n2cnc3c(N)ncnc32)[C@H](O)[C@@H]1OP(=O)(O)O [methacrylyl-CoA]
Km [1]: 41 µM
Relative activity with ethanol [2]: 4%
Relative activity with methanol [2]: 1%
Relative activity with n-butanol [2]: 100%
Relative activity with n-hexanol [2]: 182%

CCC(=O)SCCNC(=O)CCNC(=O)[C@H](O)C(C)(C)COP(=O)(O)OP(=O)(O)OC[C@H]1O[C@@H](n2cnc3c(N)ncnc32)[C@H](O)[C@@H]1OP(=O)(O)O [propionyl-CoA]
Relative activity with methanol [2]: 4%
Relative activity with n-butanol [2]: 136%
